Data on 20 compounds can be found in PubChem BioAssay (NCI).

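Interpolation was linear, between the two tested concentrations surrounding the appropriate level; five concentrations were tested over 48 hours in 96-well plates. TGI marks complete inhibition of growth.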 Where only a bound is given, the exact number is not on record here.

Holding throughout (experiment): growth of human tumour cells (NCI), 48 h
For assay [1], the system named is SNB-19 CNS.
Assay [2] concerns RPMI-8226 leukemia.
The test system of assay [3] is OVCAR-5 ovarian.
Assay [4] has as its system MDA-N.
Assay [5] has as its system PC-3 prostate.
Assay [6] concerns HCT-116 colon.
The test system of assay [7] is M14 melanoma.
For assay [8], the system named is HCT-15 colon.
Assay [9] concerns COLO 205 colon.
For assay [10], the system named is A498 renal.
For assay [11], the system named is HL-60(TB) leukemia.

`CCn1cnc2c(NC(C)=O)ncnc21`: the TGI in assay [1], in [2], in assay [3], in assay [4], in assay [5] and in assay [6] was greater than 100 µM in each case. The TGI in assay [7], in [8] and in [9] was greater than 100 µM throughout.

`S=C1SC(c2ccc(Cl)cc2)(c2ccc(Cl)cc2)c2ccccc21`: the TGI in [1], in [3], in assay [4], in assay [10], in assay [5] and in assay [6] was greater than 100 µM in each case. Moreover, the TGI in assay [7], in assay [8] and in [9] was greater than 100 µM each time.

Turning to `Cc1cc(C#N)c(Nc2c(C)cccc2[N+](=O)[O-])s1`, the TGI in assay [1] is greater than 100 µM; in assay [2] it was greater than 100 µM; in assay [3], greater than 100 µM; in assay [4], greater than 100 µM; in [10], greater than 100 µM; in [5], 54.4 µM. Besides, the TGI in assay [6], in assay [7], in assay [8] and in [9] was greater than 100 µM in each case.

Turning to `COc1cc(OC)nc(Nc2c(C#N)c3nc4ccccc4n3c3ccccc23)n1`, the TGI in [1] is 86.2 µM; in [2] it was greater than 100 µM; in [3], greater than 100 µM; in [4], greater than 100 µM; in [5] it was greater than 100 µM; in assay [11], greater than 100 µM. For the same compound, the TGI in assay [6], in [7], in assay [8] and in assay [9] was greater than 100 µM each time.

Regarding `CCc1n[nH]c(=O)n1NC(=O)/C=C\C(=O)O`, the TGI in [3], in assay [4], in [10], in assay [5], in [11] and in assay [6] was greater than 100 µM in each case. Moreover, the TGI in assay [7], in assay [8] and in [9] was greater than 100 µM each time.

On to `CC[C@@]1(O)C(=O)OCc2c1cc1n(c2=O)Cc2c-1nc1ccccc1c2/C=N\NC(=O)C(C)N` (stereo partly specified), for which the TGI was 58.7 µM in [1]; greater than 100 µM in assay [3]; greater than 100 µM in assay [4]; 1.03 µM in assay [10]; greater than 100 µM in assay [5]; greater than 100 µM in [11]. Besides, the TGI in assay [6] is 23.6 µM; in assay [7], 5.05 µM; in assay [8], greater than 100 µM; in [9], greater than 31.6 µM.

As to `CN(C(=O)c1cccs1)C(=S)N1CCN(c2ccccc2)CC1`, the TGI in assay [1], in assay [2], in assay [3], in [4], in [11] and in assay [7] was greater than 100 µM each time. For the same compound, the TGI in assay [8] and in assay [9] was greater than 100 µM each time.

Consider `CCOC(=O)C1(Cc2ccccc2)Cc2ccccc2C1=O` (stereo unspecified), for which the TGI in assay [2] is 60.8 µM; in assay [3], greater than 100 µM; in assay [4] it was 44.6 µM; in assay [5], greater than 100 µM; in assay [11], greater than 100 µM; in assay [6], greater than 100 µM. The TGI is 40.9 µM in assay [7], greater than 100 µM in assay [8] and 37.7 µM in assay [9].

In the case of `COc1cc(/C=C(\C#N)c2ccccn2)cc(Br)c1O`, the TGI in [1], in assay [2], in assay [3], in [4], in assay [5] and in assay [11] was greater than 100 µM throughout. Besides, the TGI in assay [6], in assay [7], in assay [8] and in assay [9] was greater than 100 µM in each case.

On to `N#CC(c1cc(Cl)ncn1)c1nc2ccccc2s1` (stereo unspecified), for which the TGI in assay [1] is 20.3 µM; in [2], greater than 100 µM; in assay [3], 59.3 µM; in assay [4], 24.1 µM; in [10] it was 68.6 µM; in assay [6] it was 22.7 µM. Besides, the TGI in [7] came out at 33.6 µM; in assay [8] it was 15.6 µM; in assay [9] it was 57.6 µM.

As for `CC(=O)Nc1ccc(-c2nc3ccccc3s2)cc1O`, the TGI was greater than 100 µM in assay [1]; greater than 100 µM in [2]; 93.8 µM in assay [3]; greater than 100 µM in [4]; greater than 100 µM in assay [10]; greater than 100 µM in assay [5]. Besides, the TGI in assay [6], in assay [7], in [8] and in assay [9] was greater than 100 µM throughout.

With `COc1cccc(-n2c(N)c(-c3nc4cc(C(F)(F)F)ccc4s3)c3ccc([N+](=O)[O-])cc3c2=O)c1`, the TGI in assay [1], in assay [2], in [3], in [4], in assay [10] and in [5] was greater than 100 µM in each case. Further, the TGI in assay [6], in assay [7], in assay [8] and in assay [9] was greater than 100 µM throughout.

Regarding `CC(NC(=O)C(N)CC(=O)O)NC(=O)N1CCCC1` (stereo unspecified), the TGI in [1], in assay [2], in assay [3], in assay [4], in [10] and in assay [5] was greater than 100 µM each time. For the same compound, the TGI in [6], in assay [7], in assay [8] and in assay [9] was greater than 100 µM each time.

With `O=C1NN(c2ccccc2)C(=O)C2C3c4ccccc4C(c4ccccc43)C12` (stereo unspecified), the TGI in assay [1], in assay [2], in assay [4], in [10], in [5] and in assay [6] was greater than 100 µM in each case. Also, the TGI in assay [7], in assay [8] and in [9] was greater than 100 µM in each case.

Turning to `C[C@]12CCC(=O)C=C1CC[C@@H]1C2CC[C@]2(C)Nc3c(ncn3-c3ccc(F)cc3)CC12` (stereo partly specified), the TGI is greater than 100 µM in assay [1]; greater than 100 µM in [3]; 42.8 µM in [4]; greater than 100 µM in assay [10]; greater than 100 µM in [5]; greater than 100 µM in [11]. The TGI in assay [6] is 32.8 µM; in [7], greater than 100 µM; in assay [9] it was 38.4 µM.

In the case of `Cc1cc2[nH]c3c(C#N)c(-c4ccccc4)c(CN4CCOCC4)c(=O)n3c2cc1C`, the TGI in [1], in assay [2], in assay [3], in [4], in [10] and in assay [5] was greater than 100 µM each time. The TGI in assay [6], in assay [7], in assay [8] and in assay [9] was greater than 100 µM throughout.

Turning to `CC1(C)C2CCC1(CC(=O)O)C(Cl)C2` (stereo unspecified), the TGI in [1], in [2], in assay [3], in [10], in assay [5] and in [11] was greater than 100 µM each time. The TGI in assay [6], in assay [7], in assay [8] and in assay [9] was greater than 100 µM each time.

As to `COC(=O)[C@@H]1C[C@]2(CC=C(C)C)c3ccccc3N(S(=O)(=O)c3ccccc3)[C@@H]2N1C(=O)OC`, the TGI in assay [1] was greater than 100 µM; in assay [2], 42.6 µM; in assay [3], greater than 100 µM; in assay [4] it was greater than 100 µM; in assay [5] it was greater than 100 µM; in assay [11], 33.5 µM. For the same compound, the TGI in assay [6] is greater than 100 µM; in assay [8], 55.8 µM; in assay [9], greater than 100 µM.

For the compound `CCOC(=O)c1cc(-c2ccc(Cl)cc2)c([N+](=O)[O-])n1C`, the TGI in assay [1], in [3], in assay [4], in assay [11], in assay [6] and in assay [7] was greater than 10 µM throughout. The compound further showed a TGI in [8] greater than 10 µM.

Take `NC(CCCCNC(=O)C(Cc1ccccc1)NC(=O)OCc1ccccc1)C(=O)NC(CCCCNC(=O)C(Cc1ccccc1)NC(=O)OCc1ccccc1)C(=O)NC(CCCCNC(=O)C(Cc1ccccc1)NC(=O)OCc1ccccc1)C(=O)NC(CCCCNC(=O)C(Cc1ccccc1)NC(=O)OCc1ccccc1)C(=O)NC(CCCCNC(=O)C(Cc1ccccc1)NC(=O)OCc1ccccc1)C(=O)NC(CCCCNC(=O)C(Cc1ccccc1)NC(=O)OCc1ccccc1)C(=O)O` (stereo unspecified): the TGI in assay [1], in assay [2], in assay [3], in assay [4], in assay [5] and in assay [11] was greater than 100 µM each time. Besides, the TGI in assay [6], in assay [7] and in assay [8] was greater than 100 µM throughout.
